Experiment: Particle size distribution (Malvern laser particle size analyser)
Assay type: physicochemical
Conditions: dispersed in 0.1% Tween 20 in DI water, sonicated 2 minutes
Method: vii. Particle Size Distribution
Particle size measurement was obtained using a Malvern particle size analyser equipped with a 2 milliwatt Helium/Neon laser and a Fourier Transform lens system. The sample was run using the […]. The sample unit was a MS1-Small Volume Sample Dispersion Unit stirred cell. The dispersant was DI water. The sample particle size distribution was assumed to follow a normal distribution.
Analysis model: polydisperse.
Setup presentation: standard wet (30HD)
1 ml of Tween 20 was diluted to 1000 ml with water (solution 0.1% of Tween 20 in DI water). Approximately 250 mg of sample was dispersed in 20 ml of the solution 0.1% of Tween 20 in DI water. This sample was sonicated for 2 minutes and delivered dropwise to the previously filled and background corrected measuring cell until the desired obscuration was reached.
This dispersion (the dispersion in the stirring measuring cell) was measured after stabilization of the obscuration.

With `C[C@@H](c1ncncc1F)[C@](O)(Cn1cncn1)c1ccc(F)cc1F` [Example 2, Voriconazole] the “Particle Size Distribution D(v, 0.1)” value was 36.9 μm.
With `C[C@@H](c1ncncc1F)[C@](O)(Cn1cncn1)c1ccc(F)cc1F` [Example 18, Voriconazole] the “Particle Size Distribution D(v, 0.1)” value was 4.5 μm.
In the case of `C[C@@H](c1ncncc1F)[C@](O)(Cn1cncn1)c1ccc(F)cc1F` [Example 19, Voriconazole], the “Particle Size Distribution D(v, 0.1)” value is reported as 5.7 μm.
For `C[C@@H](c1ncncc1F)[C@](O)(Cn1cncn1)c1ccc(F)cc1F` [Example 20, Voriconazole], the “Particle Size Distribution D(v, 0.1)” value was 4.2 μm.
In the case of `C[C@@H](c1ncncc1F)[C@](O)(Cn1cncn1)c1ccc(F)cc1F` [Example 21, Voriconazole], the “Particle Size Distribution D(v, 0.1)” value is reported as 5.3 μm.
In the case of `C[C@@H](c1ncncc1F)[C@](O)(Cn1cncn1)c1ccc(F)cc1F` [Example 22, Voriconazole], the “Particle Size Distribution D(v, 0.1)” value is reported as 5.2 μm.
For `C[C@@H](c1ncncc1F)[C@](O)(Cn1cncn1)c1ccc(F)cc1F` [Example 23, Voriconazole], the “Particle Size Distribution D(v, 0.1)” value was 5.2 μm.
In the case of `C[C@@H](c1ncncc1F)[C@](O)(Cn1cncn1)c1ccc(F)cc1F` [Example 24, Voriconazole], the “Particle Size Distribution D(v, 0.1)” value is reported as 35.9 μm.
For `C[C@@H](c1ncncc1F)[C@](O)(Cn1cncn1)c1ccc(F)cc1F` [Example 25, Voriconazole], the “Particle Size Distribution D(v, 0.1)” value was 5.4 μm.

In the case of `C[C@@H](c1ncncc1F)[C@](O)(Cn1cncn1)c1ccc(F)cc1F` [Example 2, Voriconazole], the “Particle Size Distribution D(v, 0.5)” value is reported as 102.4 μm.
In the case of `C[C@@H](c1ncncc1F)[C@](O)(Cn1cncn1)c1ccc(F)cc1F` [Example 18, Voriconazole], the “Particle Size Distribution D(v, 0.5)” value is reported as 16.9 μm.
In the case of `C[C@@H](c1ncncc1F)[C@](O)(Cn1cncn1)c1ccc(F)cc1F` [Example 19, Voriconazole], the “Particle Size Distribution D(v, 0.5)” value is reported as 20.8 μm.
With `C[C@@H](c1ncncc1F)[C@](O)(Cn1cncn1)c1ccc(F)cc1F` [Example 20, Voriconazole] the “Particle Size Distribution D(v, 0.5)” value was 14.9 μm.
In the case of `C[C@@H](c1ncncc1F)[C@](O)(Cn1cncn1)c1ccc(F)cc1F` [Example 21, Voriconazole], the “Particle Size Distribution D(v, 0.5)” value is reported as 16.7 μm.
For `C[C@@H](c1ncncc1F)[C@](O)(Cn1cncn1)c1ccc(F)cc1F` [Example 22, Voriconazole], the “Particle Size Distribution D(v, 0.5)” value was 19.1 μm.
In the case of `C[C@@H](c1ncncc1F)[C@](O)(Cn1cncn1)c1ccc(F)cc1F` [Example 23, Voriconazole], the “Particle Size Distribution D(v, 0.5)” value is reported as 17.9 μm.
For `C[C@@H](c1ncncc1F)[C@](O)(Cn1cncn1)c1ccc(F)cc1F` [Example 24, Voriconazole], the “Particle Size Distribution D(v, 0.5)” value was 147.6 μm.
With `C[C@@H](c1ncncc1F)[C@](O)(Cn1cncn1)c1ccc(F)cc1F` [Example 25, Voriconazole] the “Particle Size Distribution D(v, 0.5)” value was 17.5 μm.

With `C[C@@H](c1ncncc1F)[C@](O)(Cn1cncn1)c1ccc(F)cc1F` [Example 2, Voriconazole] the “Particle Size Distribution D(v, 0.9)” value was 220.0 μm.
In the case of `C[C@@H](c1ncncc1F)[C@](O)(Cn1cncn1)c1ccc(F)cc1F` [Example 18, Voriconazole], the “Particle Size Distribution D(v, 0.9)” value is reported as 37.4 μm.
In the case of `C[C@@H](c1ncncc1F)[C@](O)(Cn1cncn1)c1ccc(F)cc1F` [Example 19, Voriconazole], the “Particle Size Distribution D(v, 0.9)” value is reported as 43.4 μm.
With `C[C@@H](c1ncncc1F)[C@](O)(Cn1cncn1)c1ccc(F)cc1F` [Example 20, Voriconazole] the “Particle Size Distribution D(v, 0.9)” value was 34.1 μm.
For `C[C@@H](c1ncncc1F)[C@](O)(Cn1cncn1)c1ccc(F)cc1F` [Example 21, Voriconazole], the “Particle Size Distribution D(v, 0.9)” value was 34.1 μm.
With `C[C@@H](c1ncncc1F)[C@](O)(Cn1cncn1)c1ccc(F)cc1F` [Example 22, Voriconazole] the “Particle Size Distribution D(v, 0.9)” value was 39.1 μm.
In the case of `C[C@@H](c1ncncc1F)[C@](O)(Cn1cncn1)c1ccc(F)cc1F` [Example 23, Voriconazole], the “Particle Size Distribution D(v, 0.9)” value is reported as 37.5 μm.
For `C[C@@H](c1ncncc1F)[C@](O)(Cn1cncn1)c1ccc(F)cc1F` [Example 24, Voriconazole], the “Particle Size Distribution D(v, 0.9)” value was 350.0 μm.
For `C[C@@H](c1ncncc1F)[C@](O)(Cn1cncn1)c1ccc(F)cc1F` [Example 25, Voriconazole], the “Particle Size Distribution D(v, 0.9)” value was 37.2 μm.

In the case of `C[C@@H](c1ncncc1F)[C@](O)(Cn1cncn1)c1ccc(F)cc1F` [Example 18, Voriconazole], the “Mean Diameter” value is reported as 18.7 μm.
With `C[C@@H](c1ncncc1F)[C@](O)(Cn1cncn1)c1ccc(F)cc1F` [Example 19, Voriconazole] the “Mean Diameter” value was 23.3 μm.
With `C[C@@H](c1ncncc1F)[C@](O)(Cn1cncn1)c1ccc(F)cc1F` [Example 20, Voriconazole] the “Mean Diameter” value was 17.5 μm.
With `C[C@@H](c1ncncc1F)[C@](O)(Cn1cncn1)c1ccc(F)cc1F` [Example 21, Voriconazole] the “Mean Diameter” value was 18.3 μm.
In the case of `C[C@@H](c1ncncc1F)[C@](O)(Cn1cncn1)c1ccc(F)cc1F` [Example 22, Voriconazole], the “Mean Diameter” value is reported as 21.0 μm.
With `C[C@@H](c1ncncc1F)[C@](O)(Cn1cncn1)c1ccc(F)cc1F` [Example 23, Voriconazole] the “Mean Diameter” value was 19.8 μm.
In the case of `C[C@@H](c1ncncc1F)[C@](O)(Cn1cncn1)c1ccc(F)cc1F` [Example 25, Voriconazole], the “Mean Diameter” value is reported as 19.4 μm.

Experiment: Tapped density
Assay type: physicochemical
Conditions: after milling, sieving and blending

With `C[C@@H](c1ncncc1F)[C@](O)(Cn1cncn1)c1ccc(F)cc1F` [Example 24, Voriconazole] the “Tapped Density” value was 0.82 g/mL.

— patent publication US8143397B2 (Medichem S.A., priority 2006, dated 2012)
